In patent US11203577B2, “Sulfonyl-structure-containing triazinone derivatives, their preparation methods and their uses in insect killing and/or bacterium killing” (Nankai University, priority 2017, dated 2021):
Read-outs that look alike come from different tables or passages of the source.

How the values were obtained:
Cotton bollworms = assay: Test of insecticidal activity against cotton bollworms (pesticide mixed into feedstuff); conditions: read-out: Mortalities (%) Cotton bollworms
Procedure: Method of testing against cotton bollworms: the pesticide is mixed into the feedstuff, i.e., 3 mL prepared solution is added into about 27 g freshly prepared feedstuff; thus, required concentration is obtained by diluting by 10 times.

Rice sheath blight = assay: In vitro fungicidal activity, PDA colony diameter; format: cell-based; conditions: read-out: Fungicidal activity (%) Rice sheath blight
Rice bakanae disease = assay: In vitro fungicidal activity, PDA colony diameter; format: cell-based; conditions: 50 mg/kg, inhibition of colony diameter; read-out: Fungicidal activity (%) Rice bakanae disease
[1] = system: mosquito larvae (Culer pipiens pallens); assay: Test of insecticidal activity against mosquito larvae (checked after 24 h)
Tomato early blight = assay: In vitro fungicidal activity, PDA colony diameter; format: cell-based, Alternaria solani; conditions: 50 mg/kg, inhibition of colony diameter; read-out: Fungicidal activity (%) Tomato early blight
[2] = system: Corn southern leaf blight; assay: In vitro fungicidal activity, PDA colony diameter; format: cell-based; conditions: 50 mg/kg, inhibition of colony diameter; read-out: Fungicidal activity (%) Corn southern leaf blight
Potato late blight = assay: microbe, parasite or virus in culture; format: cell-based; conditions: Phytophthora infestans, 96 h, read-out: Fungicidal activity (%) Potato late blight
Wheat head blight = assay: whole plant or invertebrate; format: cell-based; conditions: Triticum aestivum, read-out: Fungicidal activity (%) Wheat head blight
Sclerotinia rot of colza = assay: In vitro fungicidal activity, PDA colony diameter; format: cell-based; conditions: 96 h, 50 mg/kg, inhibition of colony diameter, read-out: Fungicidal activity (%) Sclerotinia rot of colza
[3] = system: bean aphides (Aphis laburni Kaltenbach); assay: Test of insecticidal activity against aphides (leaf immersion, checked after 96 h); conditions: for mortality at 5 mg/kg / mortality at 10 mg/kg / mortality at 100 mg/kg / mortality at 600 mg/kg: Aphis, 96 h, read-out: Mortalities (%) against aphides; for insecticidal activity against aphides compared with pymetrozine: 5 mg/kg
Maize borers = assay: Test of insecticidal activity against maize borers (leaf immersion); conditions: read-out: Mortalities (%) Maize borers
Watermelon anthracnose = assay: In vitro fungicidal activity, PDA colony diameter; format: cell-based; conditions: 50 mg/kg, inhibition of colony diameter; read-out: Fungicidal activity (%) Watermelon anthracnose
Cucumber fusarium wilt = assay: In vitro fungicidal activity, PDA colony diameter; format: cell-based; conditions: 96 h, 50 mg/kg, inhibition of colony diameter, read-out: Fungicidal activity (%) Cucumber fusarium wilt
Wheat sheath blight = assay: In vitro fungicidal activity, PDA colony diameter; format: cell-based; conditions: 50 mg/kg, inhibition of colony diameter; read-out: Fungicidal activity (%) Wheat sheath blight
[4] = system: Cercospora brown spot of peanut; assay: In vitro fungicidal activity, PDA colony diameter; format: cell-based; conditions: 96 h, 50 mg/kg, inhibition of colony diameter, read-out: Fungicidal activity (%) Cercospora brown spot of peanut
Apple ring rot = assay: In vitro fungicidal activity, PDA colony diameter; format: cell-based; conditions: inhibition of colony diameter
Method in brief: (§1)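 Percent growth inhibition derived from colony diameter versus compound-free PDA control after 4 days' culture. Plates contained compound at 50 mg/kg; inoculum was a plug taken from the periphery of a 7-day PDA culture.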

[5] = system: Capsicum phytophthora blight; assay: In vitro fungicidal activity, PDA colony diameter; format: cell-based; conditions: 96 h
Method in brief: as §1

Armyworms = assay: Test of insecticidal activity against armyworms (leaf immersion); conditions: 600 mg/kg, 3-4 days
[6] = 50 mg/kg, inhibition of colony diameter
[7] = 24 h, read-out: Mortalities (%) against mosquito larvae

SMILES	mortality at 600 mg/kg (Cotton bollworms) [%]	inhibition at 50 mg/kg (Rice sheath blight; [6]) [%]	inhibition at 50 mg/kg (Rice bakanae disease) [%]	mortality at 10 mg/kg [1, 7] [%]	inhibition at 50 mg/kg (Tomato early blight) [%]	inhibition at 50 mg/kg [2] [%]	inhibition of growth at 50 mg/kg (Potato late blight) [%]	inhibition at 50 mg/kg (Wheat head blight) [%]	inhibition of growth at 50 mg/kg (Sclerotinia rot of colza) [%]	mortality at 10 mg/kg [3] [%]	mortality at 100 mg/kg [3] [%]	mortality at 600 mg/kg [3] [%]	mortality at 600 mg/kg (Maize borers) [%]	inhibition at 50 mg/kg (Watermelon anthracnose) [%]	inhibition of growth at 50 mg/kg (Cucumber fusarium wilt) [%]	inhibition at 50 mg/kg (Wheat sheath blight) [%]	inhibition of growth at 50 mg/kg [4] [%]	inhibition at 50 mg/kg (Apple ring rot) [%]	inhibition of growth at 50 mg/kg [5] [%]	Mortalities (%) Armyworms (Armyworms) [%]	also measured
CC(=O)Nc1ccc(S(=O)(=O)NN2CC(C)=NNC2=O)cc1 [Ia-24, N-(4-(N-(6-methyl-3-oxo-2,3-dihydro-1,2,4-triazin-4(5H)-yl)sulfamyl)phenyl)acetamide]	50	50.8	27.8	100	23.8	25	22.2	6.7	40	75	95	100	5	12.5	0	52.3	15.8	13.8	24.5	5	mortality at 5 mg/kg [1, 7]: 45%; mortality at 5 mg/kg [3]: 10%
CC1=NNC(=O)N(NS(=O)(=O)c2ccc(C#N)cc2)C1 [Ia-25, 4-cyano-N-(6-methyl-3-oxo-2,3-dihydro-1,2,4-triazin-4(5H)-yl)-benzenesulfonamide]	35	13.9	17.2	100	16.4	0	18.7	5.4	26.3	85	100	100	25	24.6	8.8	14.3	12	4.1	22.2	10	mortality at 2 mg/kg [1, 7]: 40%; mortality at 5 mg/kg [1, 7]: 100%; insecticidal activity against aphides compared with pymetrozine [3]: equivalent to the insecticidal activity of pymetrozine; mortality at 5 mg/kg [3]: 20%
CC1=NNC(=O)N(NS(=O)(=O)c2ccc(C(F)(F)F)cc2)C1 [Ia-26, N-(6-methyl-3-oxo-2,3-dihydro-1,2,4-triazin-4(5H)-yl)-4-(trifluoromethyl)-benzenesulfonamide]	0	20.9	17.2	100	13.4	6.3	34.3	13.5	15.8	100	100	100	40	34.4	2.9	0	12	23	27.8	45	mortality at 1 mg/kg [1, 7]: 20%; mortality at 2 mg/kg [1, 7]: 100%; mortality at 5 mg/kg [1, 7]: 100%; insecticidal activity against mosquito larvae ([1]; in vivo): relatively high insecticidal activity; insecticidal activity against aphides compared with pymetrozine [3]: equivalent to the insecticidal activity of pymetrozine; mortality at 5 mg/kg [3]: 30%
CC1=NNC(=O)N(NS(=O)(=O)c2ccc(OC(F)(F)F)cc2)C1 [Ia-27, N-(6-methyl-3-oxo-2,3-dihydro-1,2,4-triazin-4(5H)-yl)-4-(trifluoromethoxy)-benzenesulfonamide]	25	17.4	17.2	100	16.4	15.6	28.1	16.2	15.8	100	100	100	15	16.4	0	4.3	12	24.3	27.8	5	mortality at 2 mg/kg [1, 7]: 20%; mortality at 5 mg/kg [1, 7]: 90%; insecticidal activity against aphides compared with pymetrozine [3]: equivalent to the insecticidal activity of pymetrozine; mortality at 5 mg/kg [3]: 35%
CC1=NNC(=O)N(NS(=O)(=O)c2cccs2)C1 [Ia-28, N-(6-methyl-3-oxo-2,3-dihydro-1,2,4-triazin-4(5H)-yl)-thienyl-2-sulfonamide]	10	17.4	17.2	100	23.9	18.7	0	8.1	15.8	65	100	100	5	0	0	8.7	12	0	25	5	mortality at 5 mg/kg [1, 7]: 20%
CC1=NNC(=O)N(NS(=O)(=O)c2ccsc2)C1 [Ia-29, N-(6-methyl-3-oxo-2,3-dihydro-1,2,4-triazin-4(5H)-yl)-thienyl-3-sulfonamide]	20	35.7	3.7	35	25	13.9	23.8	21.2	12.5	30	85	95	15	18.8	12.8	20.8	19.2	52.4	23.1	10	
CC1=NNC(=O)N(NS(=O)(=O)c2c(C)noc2C)C1 [Ia-30, 3,5-dimethyl-N-(6-methyl-3-oxo-2,3-dihydro-1,2,4-triazin-4(5H)-yl)-isoxazolyl-4-sulfonamide]	25		14.8	35	20	19.4	14.3	12.1	12.5		45	95	15	25	23.1	7.5	19.2	23.8	11.5	20	inhibition at 50 mg/kg (Rice sheath blight): 14.3%
CC1=NNC(=O)N(NS(=O)(=O)c2cn(C)cn2)C1 [Ia-31, 1-methyl-N-(6-methyl-3-oxo-2,3-dihydro-1,2,4-triazin-4(5H)-yl)-1H-imidazolyl-4-sulfonamide]	5	5.8	12.5	60	16.1	2.6	18.8	17.2	31.6	35	100	100	15	28.1	14.7	47.1	13	29.4	18.8	10	
